Consider three molecules from patent publication US12655091B2, “N-benzyl-alpha-aminoamides as anaphase-promoting complex/cyclosome (APC/C) inhibitors” (CONSEJO SUPERIOR DE INVESTIGACIONES CIENTÍFICAS (CSIC), priority 2020, dated 2026).

Values joined by “and” are separate entries in the source; they are usually repeats but may differ in a detail not shown here. Equal values may be shown once. “Also recorded” adds a separate entry of the source. Read-outs that look alike come from different tables or passages of the source.

The inhibition is the change of the read-out against control, counted positive when it falls. What is called fraction unbound is the share of the substance not bound to proteins or other matrix.

For series [1], the system named is HCC-38 triple negative breast cancer cells. Description: Clonogenic assay of HCC-38 cells. Format: cell-based. The settings on record: HCC-38, 24 hours treatment, stained after 12 days, FIG. 7. On the procedure: FIG. 7. Clonogenic assay of HCC-38 cells treated with DMSO (1.2% v/v), the Mps1 kinase inhibitor Reversine, the Cdc20 binder Apcin and compound o-TFB-Tyr. The clones were stained after 12 days incubation at 37 Celsius. Following treatment of the HCC38 cells with the compounds for 24 hours, the medium was exchanged every 48 hrs.
The entirety of the following procedure was carried out under aseptic conditions. HeLa cells were counted and seeded into clear bottom 6-well plates (Greiner Bio-One) at density 500 cells/well (250 cells/ml). 2 ml of cells were added to each well and placed in the incubator (37° C., 5% CO2) overnight. The following day medium was aspired and 1.5 ml of treatment was added to wells. Cells were treated with control (medium alone) and compounds. All stock solutions of compounds were prepared by resuspension of the solid in DMSO, then diluted in medium to the final concentrations being tested. HeLa cells viability was measured using clonogenic assay, a cell survival-based assay that determines cell reproductive death after treatment with cytotoxic agents. Cells were incubated and had 72 hours treatment exposure. […]
Each well of the clonogenic assay was then scanned using an Axiozoom Zeiss Axioplan fluorescence microscope equipped for DIC imaging and fluorescence imaging and analysed using the ImageJ2 image-processing software (Fiji). […]

In series [2] the target is T1, APC/C activation by Cdc20 (Homo sapiens, UniProt Q12834).
T1 construct: endogenous in cells; the method paragraph speaks of HeLa cells
Description: Western blot of Cyclin B1 levels (inhibition of APC/C activation by Cdc20). Format: cell-based. Conditions: HCC-38 cells, FIG. 9. The procedure: FIG. 9. […] Consequently, non-ubiquitylated Cyclin B escapes degradation by the proteasome. […] HCC-38 cells at a density of 200,000 cells per well were used in this study.
The entirety of the following procedure was carried out under aseptic conditions. HeLa cells were counted and seeded into clear bottom 6-well plates (Greiner Bio-One) at a density of 200,000 cells/well in a volume of 2 ml and placed in an incubator (37° C., 5% CO2) overnight. The following day medium was aspired and 1.5 ml of treatment was added to wells. Cells were treated with controls (medium alone) and compounds. All stock solutions of the small compounds were prepared by resuspension of the solid in DSMO, then diluted in medium to the final concentrations being tested. The effect of these compounds on mitosis was analysed by measuring Cyclin B1 levels, a downstream target of APC/C-Cdc20. Cells were incubated and had 24 hours treatment exposure. Plates were then placed on ice and solution from each well was aspired. […]
Background: A western blot detects proteins with antibodies after separation by electrophoresis.

The target in a further series is CYP3A4 (Homo sapiens, UniProt P08684). Kind of series: Cytochrome P450 inhibition IC50 determination (isoform CYP3A4). Format: in vitro ADME. The settings on record: for inhibition at 0.1 µM / inhibition at 0.25 µM / inhibition at 1 µM / inhibition at 2.5 µM / inhibition at 10 µM / inhibition at 25 µM: human; for inhibition at 0.1 µM: CYP3A4, 0.1 μM; for inhibition at 0.25 µM: CYP3A4, 0.25 μM; for inhibition at 1 µM: CYP3A4, 1 μM; for inhibition at 2.5 µM: CYP3A4, 2.5 μM; for inhibition at 10 µM: CYP3A4, 10 μM; for inhibition at 25 µM: CYP3A4, 25 μM. The text has this:
Two thirds of drugs cleared by metabolism are metabolised at least in part by the cytochrome P450 (CYP) enzymes with the isoform CYP3A4 accounting for almost 50% of all CYP activity. For this reason, we tested whether CYP3A4 is implicated in the clearance of o-TFB-Tyr. […]

A short description of series [3]: Kinetic solubility, turbidimetric method. The series is classed as physicochemical. The procedure:
Kinetic solubility. This is a valuable initial screen that was carried out prior to starting ADME test in order to identify potential issues and to determine appropriate concentration ranges. Kinetic solubility was measured using a turbidimetric method.

A further series has as its system HeLa cells. Kind of series: MTT cytotoxicity assay in HeLa cells. Format: cell-based. On the procedure:
The entirety of the following protocol was carried out under aseptic conditions. HeLa cells were cultured in Dulbecco's Modified Eagle's Medium (DMEM) supplemented with 10% Fetal Bovine Serum (FBS) (Sigma F7524). Cells were counted and seeded into clear bottom 96-well plates (Greiner Bio-One) at density 6,000 cells/well. 100 μl of cells were added to each well and placed in the incubator overnight. The following day medium was aspired and 100 μL of treatment was added to wells. Cells were treated with controls (medium alone, Reversine 5 μM, Apcin 25 μM). […]
In vitro cytotoxic analysis involved quantitative measurements of cell proliferation and the subsequent assessment of the relative toxicity of the compounds. (3-(4,5-Dimethylthiazol-2-yl)-2,5-Diphenyltertrazolium Bromide (MTT) is a widely utilised cytotoxic assay that measures cellular metabolic activity as an indicator for cell viability, proliferation and cytotoxicity from the reduction of water soluble yellow tetrazole MTT to insoluble purple formazan crystals by mitochondrial dehydrogenases. The insoluble purple crystalline product was dissolved in DMSO and the resulting coloured solution quantified by measuring the absorbance (570 nm). Reduction can only occur when mitochondrial reductive enzymes are active, thus a direct correlation to the number of viable cells. […]

The subject of series [4] is plasma protein. Description: Plasma protein binding assay (human). The series is classed as in vitro ADME. The text has this:
(§1) Non-specific plasma protein binding can greatly affect the extent of free drug concentration which may influence the lead compound's subsequent inhibitory potential (see table 6 below).

Series [5] in a line: Plasma protein binding assay (human). Format: in vitro ADME. The settings on record: plasma spiked 1 side; for fraction unbound: plasma.
Text: as §1

Series [6] in a line: Intestinal permeability assay in Caco-2 cells. Format: in vitro ADME, human. The settings on record: human. The procedure: (§2) This was determined using an intestinal permeability assay in Caco-2 cells, a human colorectal adenocarcinoma cell line (see FIG. 4).
(In general: Passage across Caco-2 layers is used to estimate intestinal permeability.)

The next series relates to Caco-2 cells. Description: Intestinal permeability assay in Caco-2 cells. Format: in vitro ADME, human. The procedure: as §2
Series [7] has as its system plasma protein. Kind of series: Plasma protein binding assay (mouse). Format: in vitro ADME.
Text: as §1

Series [8] is described as follows: Plasma protein binding assay (mouse). The series is classed as in vitro ADME. The settings on record: plasma spiked 1 side; for fraction unbound: plasma.
Text: as §1

Series [9] is described as follows: Metabolic stability test (liver microsomes). Format: in vitro ADME, Human. The text has this: The liver is the major drug metabolising organ for the large majority of pharmaceutical drugs. A good in vitro model to investigate drug metabolism is based on the use of microsomes, a subcellular fraction of the liver.
(Liver microsomes are vesicles of endoplasmic reticulum, rich in cytochrome P450 enzymes.)

Setting [10] is: probe testosterone, read-out: % inhibition with substrate testosterone.
Setting [11] is: read-out: % inhibition with substrate midazolam.
[12] abbreviates: kinetic solubility, turbidimetric.
The mark [13] stands for this setting: read-out: Fraction unbound Replicate 1.
Where [14] appears, read: read-out: Fraction unbound Replicate 2.
[15] abbreviates: read-out: Fraction unbound Replicate 3.
The mark [16] stands for this setting: read-out: Mean fraction unbound.

Sequence of CYP3A4 (P08684 whole entry, canonical isoform): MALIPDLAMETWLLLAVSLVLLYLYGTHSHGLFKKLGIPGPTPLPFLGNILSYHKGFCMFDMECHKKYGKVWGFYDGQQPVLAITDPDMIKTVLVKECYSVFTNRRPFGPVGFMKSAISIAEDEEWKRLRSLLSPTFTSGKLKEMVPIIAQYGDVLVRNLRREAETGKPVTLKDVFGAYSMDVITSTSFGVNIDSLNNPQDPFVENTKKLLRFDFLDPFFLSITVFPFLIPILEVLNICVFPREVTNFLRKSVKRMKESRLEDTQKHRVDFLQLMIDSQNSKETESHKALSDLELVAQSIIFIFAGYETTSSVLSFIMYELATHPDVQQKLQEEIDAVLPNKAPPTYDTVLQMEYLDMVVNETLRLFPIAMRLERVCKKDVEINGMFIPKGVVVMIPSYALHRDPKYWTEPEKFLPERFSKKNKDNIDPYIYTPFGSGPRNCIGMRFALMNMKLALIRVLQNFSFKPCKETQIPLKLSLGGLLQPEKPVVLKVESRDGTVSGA
T1 sequence (Q12834 whole entry): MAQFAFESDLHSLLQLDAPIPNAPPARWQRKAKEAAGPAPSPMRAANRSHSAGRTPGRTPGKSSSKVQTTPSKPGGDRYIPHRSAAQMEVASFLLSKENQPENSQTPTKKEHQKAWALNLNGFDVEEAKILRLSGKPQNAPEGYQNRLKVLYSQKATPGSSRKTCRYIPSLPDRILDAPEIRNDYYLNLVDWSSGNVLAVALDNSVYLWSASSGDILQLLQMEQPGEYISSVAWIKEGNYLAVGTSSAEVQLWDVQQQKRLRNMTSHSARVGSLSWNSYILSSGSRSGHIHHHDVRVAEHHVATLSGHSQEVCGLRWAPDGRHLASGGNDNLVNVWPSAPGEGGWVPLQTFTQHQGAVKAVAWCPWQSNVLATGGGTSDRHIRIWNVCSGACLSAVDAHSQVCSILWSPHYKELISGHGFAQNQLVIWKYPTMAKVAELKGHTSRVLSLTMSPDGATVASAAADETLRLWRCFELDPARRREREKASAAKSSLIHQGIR

On to `c1nc2nc(Nc3ccc(N4CCOCC4)cc3)nc(NC3CCCCC3)c2[nH]1` [Reversine, reference compound], for which the “Number of clones” value in series [1] was “lower number of triple negative breast cancer cell clones”.

As for `Cc1ncc([N+](=O)[O-])n1CCOC(=O)NC(Nc1ncccn1)C(Cl)(Cl)Cl` (stereo not shown) [Apcin, reference compound], the “Inhibition of Cyclin B ubiquitylation by APC/C / APC/C activation by Cdc20” value in series [2] was “comparatively less effective than compound o-TFB-Tyr”.

Consider `N[C@@H](Cc1ccc(O)cc1)C(=O)NCc1ccccc1C(F)(F)F` [o-TFB-Tyr, (2S)-2-amino-N-[2-(trifluoromethyl)benzyl]-3-[4-(hydroxy)phenyl]propanamide], for which the “IC50 compared with control compounds” value against CYP3A4 (CYP3A4, midazolam and testosterone as substrates) is “much higher than that of controls compounds”. Moreover, the inhibition at 0.1 µM on CYP3A4 (setting [10]) is -0.99%; on CYP3A4 (setting [11]), 13.7%. The figures for the inhibition at 0.25 µM at CYP3A4 (setting [10]) and at CYP3A4 (setting [11]) were 0.136% and 22.5%, respectively. The inhibition at 1 µM at CYP3A4 (setting [10]) came out at 4.21%; at CYP3A4 (setting [11]) it was 47.5%. Besides, the results for the inhibition at 2.5 µM on CYP3A4 (setting [10]) and on CYP3A4 (setting [11]) were 49% and 65.6%, respectively. Also, the inhibition at 10 µM at CYP3A4 (setting [10]) worked out at 77.3%; at CYP3A4 (setting [11]), 84.4%. The inhibition at 25 µM on CYP3A4 (setting [10]) turned out to be 89.5%; on CYP3A4 (setting [11]), 91.1%. Besides, the “Inhibition of Cyclin B ubiquitylation by APC/C / APC/C activation by Cdc20” value in [2] is given as “confirmed the inhibitory effect of this compound on APC/C activation by Cdc20; also recorded: confirmed the inhibition of APC/C activation by Cdc20; also recorded: causes inhibition of Cyclin B ubiquitylation by APC/C”. Further, the “Solubility in aqueous solutions” value in series [3] is “readily soluble in aqueous solutions”. Moreover, the “Estimated Precipitation Range, Calculated mid-range” value in series [3] (setting [12]) was over 100 µM. Further, in [3] (setting [12]), the “Estimated Precipitation Range, Lower bound” value is 100 µM. In addition, in series [3] (setting [12]), the “Estimated Precipitation Range, Upper bound” value is over 100 µM. In addition, the “Relative cytotoxicity compared with other compounds” value in the series with HeLa cells (MTT, FIGS. 5 and 6) is “higher cytotoxic effect”. The “Cytotoxic activity, concentration range” value in the series with HeLa cells (cytotoxicity and clonogenic studies) fell in the range of 200 to 10 μM. Further, the “Non-specific plasma protein binding” value in the series with plasma protein [4] and with plasma protein [7] was “absence of non-specific plasma protein binding” in each case. Moreover, the recovery is 101% in series [5]; 62.8% in series [6] (Caco-2, Caco2, A to B, read-out: Direction A to B Mean % recovery); 88.9% in [6] (Caco-2, Caco2, B to A, read-out: Direction B to A Mean % recovery); 102% in [8]. Also, the free fraction (fraction unbound) was 0.352 in series [5] (setting [13]); 0.328 in [5] (setting [14]); 0.304 in [5] (setting [15]); 0.328 in series [5] (setting [16]); 0.28 in [8] (setting [13]); 0.28 in [8] (setting [14]). Further, the unbound share (fraction unbound) in [8] (setting [15]) came out at 0.301; in series [8] (setting [16]), 0.287. In addition, in [6] (Caco-2, Caco2, read-out: Efflux ratio (Mean Papp B to A/Mean Papp A to B)), the efflux ratio is 0.862. The “Active transport by membrane proteins such as ABC transporters” value in the series on Caco-2 cells (Caco2) is on record as “not actively transported”. The “Diffusion across the membrane” value in the series on Caco-2 cells (Caco2) is given as “diffuses freely across the semipermeable membrane in both directions”. In the series on Caco-2 cells (Caco2, A to B), this molecule showed a Direction A to B Mean Papp of 22.1 ×10⁻⁶ cm/s. This molecule also had a Direction B to A Mean Papp in the series with Caco-2 cells (Caco2, B to A) of 19.1 ×10⁻⁶ cm/s. Moreover, the “Number of clones” value in [1] is listed as “lower number of triple negative breast cancer cell clones”. In series [9] (Human microsomes), the “Metabolic stability” value is “stable”. Also, the “Compound remaining (% of 0 min)” value in [9] (Human, 0 min) is 100 % of 0 min; in series [9] (Human, 5 min) it was 107 % of 0 min; in series [9] (Human, 15 min) it was 43.7 % of 0 min; in series [9] (Human, 30 min), 19.3 % of 0 min; in series [9] (Human, 45 min), 8 % of 0 min and 8.23 % of 0 min. The “Compound remaining (% of 0 min), Control” value in [9] (Human, Control incubation) is on record as 89.8 % of 0 min.
